Test results: US8937089B2, “Synergistic mixtures of anthranilamide invertebrate pest control agents” (priority 2004, dated 2015)
Read-outs that look alike come from different tables or passages of the source.

Experiments:
Type in all cases: in vivo
[1] = test system: beet armyworm (Spodoptera exigua); assay: Test H: systemic control of beet armyworm, drip irrigation of tomato plant, leaf discs, % mortality and % feeding; details: mg ai/pot: Oxamyl 100, Compound 1 20, Oxamyl + Compound 1 100 + 20
Protocol: For evaluating systemic control of beet armyworm (Spodoptera exigua), each test unit consisted of a 10-inch (25.4 cm) pot filled with sand and containing a tomato plant (var. Tiny Tim) at the 5 to 10 true leaf stage. Oxamyl was in the liquid formulation as Vydate® L and compound 1 was in a wettable powder formulation with 50% active ingredient. Test compounds in approximately 200 mL of water per pot were applied by drip irrigation in the greenhouse. The plants were sampled at indicated date by cutting discs of the leaf material and placing each disc on a layer of agar gel in a 16-well, 1.5 oz. cup tray (B-150-S 0.028 Natural, Clear Pack Co., Franklin Park, Ill. 60131). One beet armyworm larva was added to each cell and the cells were covered. Trays were held in the growth chamber at 25° C., 16-hour light:8-hour dark, 60% relative humidity for 4 days. The percentage of mortality (abbreviated as % Morta.) and percentage of feeding (abbreviated as % feed), were visually assessed; the results are listed in Table 9. For all tests, analysis was conducted by using the LSD test. Mean comparisons were made within each evaluation date only.

[2] = test system: cabbage looper (Trichoplusia ni); assay: Test J: foliar control of cabbage looper, sprayed cabbage leaves, % mortality and % feeding; details: for mortality at […]: Trichoplusia ni, foliar, read-out: % mortality (observed)
Protocol: For evaluating control of beet armyworm (Spodoptera exigua), methomyl was in the liquid formulation as Lannate® LV (29% of active ingredient). Compound 1 was in a water dispersible granules (WDG) formulation with 35% active ingredient. The test compounds were dissolved in water. Enough water was added to make 100 ppm of active ingredient for each compound. Serial dilutions were made to obtain the appropriate concentrations. To obtain the desired mixture concentrations of each compound, twice the desired concentration of each of the two mixture partner compounds were mixed together in equal volumes.
(§1) The diluted solutions of the test compounds were sprayed to run-off on three-week-old tomato plants. The plants were placed on a rotating turntable sprayer (10 rpm). Test solutions were applied using a flat fan air-assisted nozzle (Spraying Systems 122440) at 10 psi (69 kPa). After each treated plant had dried, leaves were excised from the treated plant. The leaves were cut into pieces, which were placed singly into 5.5 cm-by-3.5 cm cells of a sixteen-cell plastic tray. Each cell contained a 2.5-cm square of moistened chromatography paper to prevent desiccation. One insect was placed in each cell. There two trays per treatment. Trays were held in the growth chamber at 25° C., 16-hour light:8-hour dark, 60% relative humidity for 4 days.
(§2) For evaluating foliar control of cabbage looper (Trichoplusia ni), cabbage (var. Stonehead) plants were grown in Metromix potting soil in 10-cm pots in aluminum trays to test size (28 days, 3-4 full leaves). Test compounds were formulated and sprayed on test plants as described for Test I. After drying for 2 hours, the treated leaves were excised and infested with one cabbage looper per cell and covered. The test units were placed on trays and put in a growth chamber at 25° C. and 60% relative humidity for 4 days.

[3] = test system: diamondback moth (Plutella xylostella); assay: whole plant or invertebrate
Protocol: The test compounds were dissolved in water. […] Serial dilutions were made to obtain the appropriate concentrations. To obtain the desired mixture concentrations of each compound, twice the desired concentration of each of the two mixture partner compounds were mixed together in equal volumes.
as §1, with “After each treated plant had dried, leaves were excised from the treated plant.” left out
as §2, with “evaluating” for “evaluating foliar”, “diamondback moth (Plutella xylostella),” for “cabbage looper (Trichoplusia ni),”, “leaves) the plants were sprayed to the point of runoff using the turntable sprayer as described in Test I.” for “leaves).”

[4] = test system: silverleaf whitefly (Bemisia argentifolii); assay: Test G: systemic control of silverleaf whitefly, drip irrigation of tomato plant in greenhouse
Protocol: For evaluating systemic control of silverleaf whitefly (Bemisia argentifolii), each test unit consisted of a 10-inch (25.4 cm) pot with sand, and a tomato plant (var. Tiny Tim) at the 5 to 10 true leaf stage. Oxamyl was in the liquid formulation as Vydate® L and compound 1 was in a wettable powder formulation with 50% active ingredient. Test compounds in approximately 200 mL of water per pot were applied by drip irrigation in the greenhouse. Whitefly activity was evaluated on a naturally occurring population by removing 5 old leaves with clearly visible nymphs. When there were no leaves with clearly visible nymphs, 5 old leaves were removed at random. Leaves were evaluated for dead and live nymphs. For all tests, analysis was conducted by using Fisher's LSD test for means separation, at p=0.05 (see. K. A. Gomez and A. A. Gomez, “Statistical Procedures for Agricultural Research”, 2nd edition, John Wiley & Sons, New York, 680 pp). Mean comparisons were made within each evaluation date only.

[5] = Day 13 - old growth (first of two heads so printed, c4)
[6] = Day 13 - old growth (first of two heads so printed, c5)
[7] = Day 13 - old growth (second of two heads so printed, c6)
[8] = Day 13 - old growth (second of two heads so printed, c7)
[9] = Day 6, mg ai/pot: Oxamyl 100, Compound 1 20, Oxamyl + Compound 1 100 + 20
[10] = Day 13, mg ai/pot: Oxamyl 100, Compound 1 20, Oxamyl + Compound 1 100 + 20
[11] = Day 20, mg ai/pot: Oxamyl 100, Compound 1 20, Oxamyl + Compound 1 100 + 20

## CNC(=O)c1cc(Cl)cc(C)c1NC(=O)c1cc(Br)nn1-c1ncccc1Cl [Compound 1, 3-bromo-N-[4-chloro-2-methyl-6-[(methylamino)carbonyl]phenyl]-1-(3-chloro-2-pyridinyl)-1H-pyrazole-5-carboxamide]
[1]; Day 6 new & old
  % Morta.: 99%
  % feed: 0%
[1]; [5]
  % Morta.: 100%
[1]; [6]
  % feed: 0%
[1]; [7]
  % Morta.: 97%
[1]; [8]
  % feed: 0%
[1]; Day 20 - new growth
  % Morta.: 100%
  % feed: 0%
[1]; Day 20 - old growth
  % Morta.: 100%
  % feed: 0%
[2]; Compound 1 0.032 ppm
  mortality at […]: 9%
[2]; Compound 1 0.057 ppm
  mortality at […]: 22%
[3]; Compound 1 0.007 ppm
  % feeding: 10.0%
[3]; Compound 1 0.030 ppm
  % feeding: 0%
[3]; Plutella xylostella, in Brassica oleracea, Compound 1 0.007 ppm, read-out: % mortality (observed)
  mortality at 0.007 ppm: 13%
[3]; Plutella xylostella, in Brassica oleracea, Compound 1 0.013 ppm, read-out: % mortality (observed)
  mortality at […]: 34%
[3]; Plutella xylostella, in Brassica oleracea, Compound 1 0.030 ppm, read-out: % mortality (observed)
  mortality at 0.03 ppm: 78%
[3]; Plutella xylostella, in Brassica oleracea, rate 0.01 ppm, read-out: % mortality (obs)
  mortality at 0.01 ppm: 87%
[3]; Plutella xylostella, in Brassica oleracea, rate 0.02 ppm, read-out: % mortality (obs)
  mortality at 0.02 ppm: 77%
[3]; Plutella xylostella, in Brassica oleracea, rate 0.04 ppm, read-out: % mortality (obs)
  mortality at 0.04 ppm: 93%
[4]; [9]
  % Mortality: 44%
  Nymphs number: 316
[4]; [10]
  % Mortality: 99%
  Nymphs number: 194
[4]; [11]
  % Mortality: 100%
  Nymphs number: 300

## COC(=O)N(C(=O)N1CO[C@@]2(C(=O)OC)Cc3cc(Cl)ccc3C2=N1)c1ccc(OC(F)(F)F)cc1 [Indoxacarb]
[2]; Indoxacarb 0.146 ppm
  % feeding: 68%
  % mortality (observed): 31%
[3]; Indoxacarb 0.147 ppm
  % feeding: 13.8%
  % mortality (observed): 33%
[3]; Indoxacarb 0.226 ppm
  % feeding: 3.5%
  % mortality (observed): 25%
[3]; Indoxacarb 0.340 ppm
  % feeding: 0.5%
  % mortality (observed): 47%
[3]; Indoxacarb 1 ppm
  % feeding: 0.1%
  % mortality (observed): 50%

## CNC(=O)O/N=C(\SC)C(=O)N(C)C [Oxamyl]
[1]; Day 6 new & old
  % Morta.: 26%
  % feed: 49%
[1]; [5]
  % Morta.: 35%
[1]; [6]
  % feed: 43%
[1]; [7]
  % Morta.: 40%
[1]; [8]
  % feed: 40%
[1]; Day 20 - new growth
  % Morta.: 25%
  % feed: 92%
[1]; Day 20 - old growth
  % Morta.: 31%
  % feed: 65%
[4]; [9]
  % Mortality: 6%
  Nymphs number: 380
[4]; [10]
  % Mortality: 34%
  Nymphs number: 506
[4]; [11]
  % Mortality: 28%
  Nymphs number: 404
